Test results as given in patent US11447505B1, “Pyrrolo[2,3-b]pyridine compounds and their use in the treatment of cancer” (priority 2017, dated 2022).

Key:
[1] = target: ROCK1 (Homo sapiens (Human), UniProt Q13464); details: read-out: ROCK1 Average Ki; 1 μM ATP
Experimental: MRCKα, MRCKβ, ROCK1 and ROCK2 assays were performed using an IMAP fluorescence polarization assay format (Molecular Devices Inc.). […] Typically, dose response analyses were performed over concentration ranges from 0.005-100 μM. […] After 30 min incubation to allow binding reagent to bind phosphorylated peptide, fluorescence polarization was measured on a Tecan Saphire^2 plate reader at excitation (470 nm) and emission (530 nm) wavelengths.

[2] = target: MRCKβ (Homo sapiens (Human), UniProt Q9Y5S2); assay: MRCKβ kinase assay (IMAP fluorescence polarization); type: biochemical; details: 1 μM ATP; read-out: MRCK-B Average Ki
Excerpt: (§1) MRCKα, MRCKβ, ROCK1 and ROCK2 Kinase Assays

[3] = target: ROCK2 (Homo sapiens (Human), UniProt O75116); assay: ROCK2 kinase assay (IMAP fluorescence polarization); type: biochemical; details: 1 μM ATP; read-out: ROCK2 Average Ki
ROCK2, sequence (O75116 whole entry): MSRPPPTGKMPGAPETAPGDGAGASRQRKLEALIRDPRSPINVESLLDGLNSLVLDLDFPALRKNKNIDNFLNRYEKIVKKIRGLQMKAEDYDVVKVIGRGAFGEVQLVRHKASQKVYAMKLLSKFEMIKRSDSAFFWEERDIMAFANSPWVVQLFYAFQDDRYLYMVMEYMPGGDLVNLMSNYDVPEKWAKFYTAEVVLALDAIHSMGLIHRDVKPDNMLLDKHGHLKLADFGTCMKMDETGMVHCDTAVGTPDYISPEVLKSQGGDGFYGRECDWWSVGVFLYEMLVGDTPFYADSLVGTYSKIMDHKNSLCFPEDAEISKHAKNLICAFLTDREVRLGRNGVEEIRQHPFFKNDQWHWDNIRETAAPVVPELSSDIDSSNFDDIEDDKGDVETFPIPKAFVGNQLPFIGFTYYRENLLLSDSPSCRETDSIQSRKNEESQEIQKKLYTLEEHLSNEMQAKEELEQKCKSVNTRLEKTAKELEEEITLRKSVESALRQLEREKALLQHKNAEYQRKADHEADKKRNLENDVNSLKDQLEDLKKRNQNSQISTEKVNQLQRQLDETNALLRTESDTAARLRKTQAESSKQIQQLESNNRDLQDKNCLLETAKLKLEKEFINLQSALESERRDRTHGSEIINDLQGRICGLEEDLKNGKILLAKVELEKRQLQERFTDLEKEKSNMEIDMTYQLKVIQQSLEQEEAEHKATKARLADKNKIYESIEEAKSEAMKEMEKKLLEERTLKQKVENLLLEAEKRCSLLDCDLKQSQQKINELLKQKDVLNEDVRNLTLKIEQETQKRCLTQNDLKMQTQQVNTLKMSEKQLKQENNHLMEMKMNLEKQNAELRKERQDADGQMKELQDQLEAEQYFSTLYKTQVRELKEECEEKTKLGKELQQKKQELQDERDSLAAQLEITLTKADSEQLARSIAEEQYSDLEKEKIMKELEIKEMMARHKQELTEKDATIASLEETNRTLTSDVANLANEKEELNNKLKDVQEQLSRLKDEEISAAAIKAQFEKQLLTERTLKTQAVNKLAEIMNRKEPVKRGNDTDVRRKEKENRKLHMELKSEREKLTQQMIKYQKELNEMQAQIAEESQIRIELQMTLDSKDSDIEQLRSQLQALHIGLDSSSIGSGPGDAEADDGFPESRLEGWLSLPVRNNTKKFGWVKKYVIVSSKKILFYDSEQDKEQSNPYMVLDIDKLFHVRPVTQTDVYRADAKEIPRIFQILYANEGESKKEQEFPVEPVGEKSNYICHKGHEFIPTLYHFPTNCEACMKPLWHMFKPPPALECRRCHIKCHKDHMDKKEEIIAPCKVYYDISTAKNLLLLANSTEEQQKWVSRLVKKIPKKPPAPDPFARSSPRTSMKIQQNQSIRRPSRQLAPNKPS
Experimental: MRCKα, MRCKβ, ROCK1 and ROCK2 assays were performed using an IMAP fluorescence polarization assay format (Molecular Devices Inc.). 8-12 nM of each kinase (Life Technologies) was incubated for 60 min at room temperature with 100 nM FAM-S6-ribosomal protein derived peptide (synthesized by Alta Biosciences, University of Birmingham UK) in the presence of 1 μM ATP and 0.5 mM MgCl2 in 20 mM Tris buffer (pH 7.4) containing 0.01% Tween-20 and 1 mM DTT (MRCKα and β); or 1 μM ATP, 10 mM MgCl2 in 20 mM Tris buffer (pH 7.5) containing 0.25 mM EGTA 0.01% Triton X-100 and 1 mM DTT (ROCK1 and ROCK2). Typically, dose response analyses were performed over concentration ranges from 0.005-100 μM. Reactions were stopped by adding 2 assay volumes of 0.25% (v/v) IMAP binding reagent in 1×IMAP binding buffer A (Molecular Devices). After 30 min incubation to allow binding reagent to bind phosphorylated peptide, fluorescence polarization was measured on a Tecan Saphire^2 plate reader at excitation (470 nm) and emission (530 nm) wavelengths.

[4] = target: MRCKα (Homo sapiens (Human), UniProt Q5VT25); assay: MRCKα kinase assay (IMAP fluorescence polarization); type: biochemical; details: 1 μM ATP; read-out: MRCK-a Average Ki
MRCKα, sequence (Q5VT25 whole entry): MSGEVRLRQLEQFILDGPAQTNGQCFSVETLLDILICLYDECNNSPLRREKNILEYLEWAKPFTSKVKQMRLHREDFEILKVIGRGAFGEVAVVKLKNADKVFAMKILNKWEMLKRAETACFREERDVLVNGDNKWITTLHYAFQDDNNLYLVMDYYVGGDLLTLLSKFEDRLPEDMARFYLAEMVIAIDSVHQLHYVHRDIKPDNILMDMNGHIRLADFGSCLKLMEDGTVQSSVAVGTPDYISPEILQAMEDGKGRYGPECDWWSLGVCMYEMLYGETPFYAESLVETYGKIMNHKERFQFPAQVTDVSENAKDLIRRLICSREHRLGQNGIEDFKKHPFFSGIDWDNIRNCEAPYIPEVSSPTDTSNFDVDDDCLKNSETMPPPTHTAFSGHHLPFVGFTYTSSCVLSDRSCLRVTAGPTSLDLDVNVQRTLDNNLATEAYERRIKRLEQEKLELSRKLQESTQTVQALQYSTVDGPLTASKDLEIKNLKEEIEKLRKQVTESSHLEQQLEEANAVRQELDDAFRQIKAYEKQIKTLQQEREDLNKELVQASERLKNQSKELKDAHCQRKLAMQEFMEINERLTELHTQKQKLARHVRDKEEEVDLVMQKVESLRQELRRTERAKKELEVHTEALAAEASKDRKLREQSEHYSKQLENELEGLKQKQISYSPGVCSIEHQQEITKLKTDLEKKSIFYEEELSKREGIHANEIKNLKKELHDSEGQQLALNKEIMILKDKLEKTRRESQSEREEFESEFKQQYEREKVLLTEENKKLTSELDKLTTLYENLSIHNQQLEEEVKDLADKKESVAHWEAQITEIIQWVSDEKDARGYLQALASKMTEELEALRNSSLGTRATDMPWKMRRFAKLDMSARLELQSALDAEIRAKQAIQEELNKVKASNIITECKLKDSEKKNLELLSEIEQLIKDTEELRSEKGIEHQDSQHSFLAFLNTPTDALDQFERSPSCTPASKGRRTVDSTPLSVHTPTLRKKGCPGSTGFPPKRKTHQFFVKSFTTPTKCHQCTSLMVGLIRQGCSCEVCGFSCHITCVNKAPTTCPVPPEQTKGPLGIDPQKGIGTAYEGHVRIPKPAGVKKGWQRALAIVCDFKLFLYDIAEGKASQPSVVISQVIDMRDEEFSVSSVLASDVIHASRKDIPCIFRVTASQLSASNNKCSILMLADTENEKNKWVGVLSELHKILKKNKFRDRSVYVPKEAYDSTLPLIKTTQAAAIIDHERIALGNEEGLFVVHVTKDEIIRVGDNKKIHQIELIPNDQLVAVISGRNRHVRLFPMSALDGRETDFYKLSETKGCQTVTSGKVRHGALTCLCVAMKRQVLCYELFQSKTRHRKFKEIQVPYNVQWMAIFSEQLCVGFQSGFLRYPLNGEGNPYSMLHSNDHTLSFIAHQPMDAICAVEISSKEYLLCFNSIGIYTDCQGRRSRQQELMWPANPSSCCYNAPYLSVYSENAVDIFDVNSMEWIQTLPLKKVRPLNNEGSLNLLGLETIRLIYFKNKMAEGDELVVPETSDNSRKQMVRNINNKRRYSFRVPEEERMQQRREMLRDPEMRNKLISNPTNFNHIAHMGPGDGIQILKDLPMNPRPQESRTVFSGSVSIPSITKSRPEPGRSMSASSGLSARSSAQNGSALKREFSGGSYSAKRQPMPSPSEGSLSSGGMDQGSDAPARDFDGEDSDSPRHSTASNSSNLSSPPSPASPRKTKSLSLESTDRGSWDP
Excerpt: as §1

ROCK1, sequence (Q13464 2-1354 limits assumed): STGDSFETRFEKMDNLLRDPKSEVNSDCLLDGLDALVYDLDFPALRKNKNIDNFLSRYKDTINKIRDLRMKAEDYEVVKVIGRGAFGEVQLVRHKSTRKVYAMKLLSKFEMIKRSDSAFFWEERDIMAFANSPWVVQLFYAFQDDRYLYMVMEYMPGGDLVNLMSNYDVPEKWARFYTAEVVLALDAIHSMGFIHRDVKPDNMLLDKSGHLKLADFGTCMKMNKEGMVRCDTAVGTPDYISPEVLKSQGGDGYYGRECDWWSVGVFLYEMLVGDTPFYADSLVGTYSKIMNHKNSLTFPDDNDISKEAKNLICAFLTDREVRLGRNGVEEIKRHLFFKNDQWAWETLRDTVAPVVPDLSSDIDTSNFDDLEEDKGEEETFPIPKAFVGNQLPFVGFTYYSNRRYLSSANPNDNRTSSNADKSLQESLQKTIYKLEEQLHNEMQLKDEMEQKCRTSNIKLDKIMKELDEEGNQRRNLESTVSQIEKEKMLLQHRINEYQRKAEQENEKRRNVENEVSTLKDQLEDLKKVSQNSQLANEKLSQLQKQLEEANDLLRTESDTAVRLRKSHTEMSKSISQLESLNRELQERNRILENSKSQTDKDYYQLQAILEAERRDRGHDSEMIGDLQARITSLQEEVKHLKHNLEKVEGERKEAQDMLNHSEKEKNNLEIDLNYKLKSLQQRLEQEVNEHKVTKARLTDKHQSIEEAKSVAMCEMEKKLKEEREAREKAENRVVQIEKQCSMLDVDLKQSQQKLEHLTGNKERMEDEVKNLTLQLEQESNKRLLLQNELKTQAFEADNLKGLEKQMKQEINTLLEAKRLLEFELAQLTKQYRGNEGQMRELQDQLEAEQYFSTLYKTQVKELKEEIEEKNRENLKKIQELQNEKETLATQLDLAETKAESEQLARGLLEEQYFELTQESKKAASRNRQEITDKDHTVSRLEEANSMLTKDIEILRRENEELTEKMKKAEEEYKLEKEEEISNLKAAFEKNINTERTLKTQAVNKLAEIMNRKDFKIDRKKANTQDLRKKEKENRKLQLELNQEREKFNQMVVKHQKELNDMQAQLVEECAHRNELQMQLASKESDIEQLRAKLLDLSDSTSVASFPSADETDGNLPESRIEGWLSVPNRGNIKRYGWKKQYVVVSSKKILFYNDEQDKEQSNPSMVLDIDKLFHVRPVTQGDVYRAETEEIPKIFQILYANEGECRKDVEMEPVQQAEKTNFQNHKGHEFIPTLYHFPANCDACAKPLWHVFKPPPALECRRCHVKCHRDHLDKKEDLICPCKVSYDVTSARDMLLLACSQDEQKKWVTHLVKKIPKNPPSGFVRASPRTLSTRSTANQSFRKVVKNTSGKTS

SMILES	Ki [1] [nM]	Ki [2] [nM]	Ki [3] [nM]	Ki [4] [nM]
Cc1cnc2[nH]cc(-c3cn[nH]c3)c2c1N1CCCCC1 [Example E2, 5-methyl-4-(1-piperidyl)-3-(1H-pyrazol-4-yl)-1H-pyrrolo[2,3-b]pyridine]	207	36.4	102	19.7
c1ncc(-c2c[nH]c3nccc(N4CCCCC4)c23)cn1 [Example E20, 4-(1-piperidyl)-3-pyrimidin-5-yl-1H-pyrrolo[2,3-b]pyridine]	–	40.7	516	14.2
CN1CCCN(c2ccnc3[nH]cc(C#N)c23)CC1 [Example E30, 4-(4-methyl-1,4-diazepan-1-yl)-1H-pyrrolo[2,3-b]pyridine-3-carbonitrile]	24.3	5.73	20.2	12.8
CN(C)c1ccnc2[nH]cc(C#N)c12 [Example E31, 4-(dimethylamino)-1H-pyrrolo[2,3-b]pyridine-3-carbonitrile]	43.6	16.7	24.1	47.9
N#Cc1c[nH]c2nccc(N3CCCCC3)c12 [Example E35, 4-(1-piperidyl)-1H-pyrrolo[2,3-b]pyridine-3-carbonitrile]	57.9	9.01	16	14.3
N#Cc1c[nH]c2nccc(N3CCCC3)c12 [Example E36, 4-pyrrolidin-1-yl-1H-pyrrolo[2,3-b]pyridine-3-carbonitrile]	90.6	78.9	65.8	82.1
CNc1ccnc2[nH]cc(C#N)c12 [Example E37, 4-(methylamino)-1H-pyrrolo[2,3-b]pyridine-3-carbonitrile]	43.8	39.9	30.3	125
CN[C@H]1CCCN(c2ccnc3[nH]cc(-c4cnn(C)c4)c23)C1 [Example E55, (3S)-N-methyl-1-[3-(1-methylpyrazol-4-yl)-1H-pyrrolo[2,3-b]pyridin-4-yl]piperidin-3-amine]	301	7.31	129	18.9
CN[C@H]1CCCN(c2ccnc3[nH]cc(-c4cncnc4)c23)C1 [Example E57, (3S)-N-methyl-1-(3-pyrimidin-5-yl-1H-pyrrolo[2,3-b]pyridin-4-yl)piperidin-3-amine]	50700	2.34	545	2.93
FC1CCN([C@H]2CCCN(c3ccnc4[nH]cc(-c5cncnc5)c34)C2)CC1 [Example E94, 4-[(3S)-3-(4-fluoro-1-piperidyl)-1-piperidyl]-3-pyrimidin-5-yl-1H-pyrrolo[2,3-b]pyridine]	913	9.33	495	–
c1ncc(-c2c[nH]c3nccc(N4CCC[C@H](N5CCOCC5)C4)c23)cn1 [Example E96, 4-[(3S)-1-(3-pyrimidin-5-yl-1H-pyrrolo[2,3-b]pyridin-4-yl)-3-piperidyl]morpholine]	1300	28.8	876	–
O[C@H]1CCCN(c2ccnc3[nH]cc(-c4cncnc4)c23)C1 [Example E101, (3S)-1-(3-pyrimidin-5-yl-1H-pyrrolo[2,3-b]pyridin-4-yl)piperidin-3-ol]	567	22.5	363	–
c1ncc(-c2c[nH]c3nccc(NCC4CCNCC4)c23)cn1 [Example E102, N-(4-piperidylmethyl)-3-pyrimidin-5-yl-1H-pyrrolo[2,3-b]pyridin-4-amine]	38.2	13.9	51.2	–
CN1CCCN(c2ccnc3[nH]cc(-c4cncnc4)c23)CC1 [Example E103, 4(4-methyl-1,4-diazepan-l-yl)-3-pyrimidin-5-yl-1H-pyrrolo[2,3-b]pyridine]	252	18.7	161	–
Cc1[nH]ncc1-c1c[nH]c2nccc(N3CCCCC3)c12 [Example E104, 3-(5-methyl-1H-pyrazol-4-yl)-4-(1-piperidyl)-1H-pyrrolo[2,3-b]pyridine]	303	222	198	–
NCC1CCN(c2ccnc3[nH]cc(-c4cncnc4)c23)CC1 [Example E105, [1-(3-pyrimidin-5-yl-1H-pyrrolo[2,3-b]pyridin-4-yl)-4-piperidyl]methanamine]	10.1	1	9.5	–
N#Cc1c[nH]c2nccc(N3CCCC3Cc3ccccc3)c12 (centres unmarked) [Example E107, 4-(2-benzylpyrrolidin-1-yl)-1H-pyrrolo[2,3-b]pyridine-3-carbonitrile]	1880	90.3	2820	–
COC[C@@H]1CCCN1c1ccnc2[nH]cc(C#N)c12 [Example E108, 4-[(2S)-2-(methoxymethyl)pyrrolidin-1-yl]-1H-pyrrolo[2,3-b]pyridine-3-carbonitrile]	21.8	3.89	18.8	–
N#Cc1c[nH]c2nccc(N3CCCC(c4ccccc4)C3)c12 (centres unmarked) [Example E112, 4-(3-phenyl-1-piperidyl)-1H-pyrrolo[2,3-b]pyridine-3-carbonitrile]	682	558	728	–

SMILES	Ki [1] [nM]	Ki [2] [nM]	Ki [3] [nM]	Ki [4] [nM]
N#Cc1c[nH]c2nccc(N3CCCC3c3ccccc3)c12 (centres unmarked) [Example E113, 4-(2-phenylpyrrolidin-1-yl)-1H-pyrrolo[2,3-b]pyridine-3-carbonitrile]	388	111	144	–
c1cc(-c2c[nH]c3nccc(N4CCCC5(CCCCN5)C4)c23)cnn1 (centres unmarked) [Example E172, 8-(3-pyridazin-4-yl-1H-pyrrolo[2,3-b]pyridin-4-yl)-1,8-diazaspiro[5.5]undecane]	33.6	0.723	14.6	–
c1ncc(-c2c[nH]c3nccc(N4CCC5(CCNC5)CC4)c23)cn1 [Example E190, 8-(3-pyrimidin-5-yl-1H-pyrrolo[2,3-b]pyridin-4-yl)-2,8-diazaspiro[4.5]decane]	9.3	0.973	8.7	–
c1ncc(-c2c[nH]c3nccc(N4CCC5(CCNCC5)C4)c23)cn1 [Example E191, 2-(3-pyrimidin-5-yl-1H-pyrrolo[2,3-b]pyridin-4-yl)-2,8-diazaspiro[4.5]decane]	9.28	2.05	7.7	–
c1ncc(-c2c[nH]c3nccc(N4CCC[C@]5(CCCCN5)C4)c23)cn1 [Example E192, (6R)-8-(3-pyrimidin-5-yl-1H-pyrrolo[2,3-b]pyridin-4-yl)-1,8-diazaspiro[5.5]undecane]	50500	8.33	428	–
c1ncc(-c2c[nH]c3nccc(N4CC5CNCC5C4)c23)cn1 (centres unmarked) [Example E199, 4-(2,3,3a,4,6,6a-hexahydro-1H-pyrrolo[3,4-c]pyrrol-5-yl)-3-pyrimidin-5-yl-1H-pyrrolo[2,3-b]pyridine]	222	6.32	199	–
CN1CCN(C(=O)[C@@H]2CCCN2c2ccnc3[nH]cc(C#N)c23)CC1 [Example E204, 4-[(2S)-2-(4-methylpiperazine-1-carbonyl)pyrrolidin-1-yl]-1H-pyrrolo[2,3-b]pyridine-3-carbonitrile]	558	119	762	–
CCN1CCCC[C@]12CCCN(c1ccnc3[nH]cc(-c4cncnc4)c13)C2 [Example E208, (6R)-1-ethyl-8-(3-pyrimidin-5-yl-1H-pyrrolo[2,3-b]pyridin-4-yl)-1,8-diazaspiro[5.5]undecane]	1210	9.73	396	–
c1ncc(-c2c[nH]c3nccc(OC[C@H]4CCNC4)c23)cn1 [Example E215, 3-pyrimidin-5-yl-4-[[(3S)-pyrrolidin-3-yl]methoxy]-1H-pyrrolo[2,3-b]pyridine]	47.8	3.86	34.7	–
c1ncc(-c2c[nH]c3nccc(O[C@@H]4CCCNC4)c23)cn1 [Example E217, 4-[[(3R)-3-piperidyl]oxy]-3-pyrimidin-5-yl-1H-pyrrolo[2,3-b]pyridine]	114	4.01	77.5	–
c1ncc(-c2c[nH]c3nccc(OCC4CCCNC4)c23)cn1 (centres unmarked) [Example E220, 4-(3-piperidylmethoxy)-3-pyrimidin-5-yl-1H-pyrrolo[2,3-b]pyridine]	34	1.07	40.7	–
c1ncc(-c2c[nH]c3nccc(OC4CCNCC4)c23)cn1 [Example E223, 4-(4-piperidyloxy)-3-pyrimidin-5-yl-1H-pyrrolo[2,3-b]pyridine]	153	5.84	108	–
CN1CC[C@H](COc2ccnc3[nH]cc(-c4cncnc4)c23)C1 [Example E225, 4-[[(3S)-1-methylpyrrolidin-3-yl]methoxy]-3-pyrimidin-5-yl-1H-pyrrolo[2,3-b]pyridine]	190	11.4	140	–
CN1CCC[C@H](COc2ccnc3[nH]cc(-c4cncnc4)c23)C1 [Example E226, 3-pyrimidin-5-yl-4-[[(3S)-1-methyl-3-piperidyl]methoxy]-1H-pyrrolo[2,3-b]pyridine]	150	5	111	–
NCCC1CCN(c2ccnc3[nH]cc(-c4cncnc4)c23)CC1 [Example E238]	14.2	1.02	18.4	–
c1ncc(-c2c[nH]c3nccc(NCC4CCCNC4)c23)cn1 (centres unmarked) [Example E239]	103	7.85	93.3	–
N#Cc1c[nH]c2nccc(N3CCC3)c12 [Example E240]	38.7	8.31	21.6	–
Cn1cc(-c2c[nH]c3nccc(N4CCC[C@](N)(N5CCC(N)CC5)C4)c23)cn1 [Example E241]	543	11.9	224	–
c1ncc(-c2c[nH]c3nccc(NC4CCCNC4)c23)cn1 (centres unmarked) [Example E242]	217	19.3	165	–
